From PubChem BioAssay (NCI)
Values joined by “and” are separate entries in the source; they are usually repeats but may differ in a detail not shown here. Identical values can stand only once.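 GI50 marks 50% less growth. TGI: concentration producing complete growth inhibition.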

How the values were obtained:
Test in all cases: NCI tumour cell line growth inhibition, 384-well format
MDA-MB-468 breast = test system: MDA-MB-468 breast
COLO 205 colon = test system: COLO 205 colon
SK-MEL-5 melanoma = test system: SK-MEL-5 melanoma
MOLT-4 leukemia = test system: MOLT-4 leukemia
NCI-H460 NSCLC = test system: NCI-H460 NSCLC
K-562 leukemia = test system: K-562 leukemia
SR leukemia = test system: SR leukemia
HCT-15 colon = test system: HCT-15 colon
RPMI-8226 leukemia = test system: RPMI-8226 leukemia
OVCAR-8 ovarian = test system: OVCAR-8 ovarian
CCRF-CEM leukemia = test system: CCRF-CEM leukemia
HL-60(TB) leukemia = test system: HL-60(TB) leukemia
ACHN renal = test system: ACHN renal
NCI-H522 lung = test system: NCI-H522 lung
UACC-62 melanoma = test system: UACC-62 melanoma
UACC-257 melanoma = test system: UACC-257 melanoma
PC-3 prostate = test system: PC-3 prostate
HCT-116 colon = test system: HCT-116 colon
MALME-3M melanoma = test system: MALME-3M melanoma
SF-539 CNS = test system: SF-539 CNS
A549 NSCLC = test system: A549 NSCLC
TK-10 renal = test system: TK-10 renal
SNB-75 CNS = test system: SNB-75 CNS
BT-549 breast = test system: BT-549 breast
HOP-92 NSCLC = test system: HOP-92 NSCLC
IGROV1 ovarian = test system: IGROV1 ovarian
EKVX NSCLC = test system: EKVX NSCLC
SK-OV-3 ovarian = test system: SK-OV-3 ovarian
MCF7 breast = test system: MCF7 breast
SF-268 CNS = test system: SF-268 CNS
CAKI-1 renal = test system: CAKI-1 renal
OVCAR-4 ovarian = test system: OVCAR-4 ovarian
SN12C renal = test system: SN12C renal
HT29 colon = test system: HT29 colon
HCC-2998 colon = test system: HCC-2998 colon
A498 renal = test system: A498 renal
HS 578T breast = test system: HS 578T breast
SNB-19 CNS = test system: SNB-19 CNS
RXF 393 renal = test system: RXF 393 renal
NCI-H23 lung = test system: NCI-H23 lung
MDA-MB-435 melanoma = test system: MDA-MB-435 melanoma
NCI/ADR-RES ovarian = test system: NCI/ADR-RES ovarian
DU-145 prostate = test system: DU-145 prostate
M14 melanoma = test system: M14 melanoma
T-47D breast = test system: T-47D breast
SF-295 CNS = test system: SF-295 CNS
NCI-H226 lung = test system: NCI-H226 lung
MDA-MB-231 breast = test system: MDA-MB-231 breast
U251 glioblastoma = test system: U251 glioblastoma
NCI-H322M lung = test system: NCI-H322M lung
LOX IMVI melanoma = test system: LOX IMVI melanoma
OVCAR-3 ovarian = test system: OVCAR-3 ovarian
SK-MEL-28 melanoma = test system: SK-MEL-28 melanoma
OVCAR-5 ovarian = test system: OVCAR-5 ovarian
KM12 colon = test system: KM12 colon
HOP-62 NSCLC = test system: HOP-62 NSCLC

Nc1ncn(C2CC(O)C(CO)O2)c(=O)n1 (configuration not stated) was tested, and the GI50 (MDA-MB-468 breast) was < 0.0183 µM, the TGI (MDA-MB-468 breast) was 0.0532 µM and the GI50 (COLO 205 colon) was 65.6 µM. For the same molecule, the GI50 (SK-MEL-5 melanoma) was 0.705 µM, the GI50 (MOLT-4 leukemia) was 0.0397 µM and the GI50 (NCI-H460 NSCLC) was 1.98 µM. For the same molecule, the GI50 (K-562 leukemia) was 1.28 µM, the GI50 (SR leukemia) was 2.92 µM and the GI50 (HCT-15 colon) was > 31.2 µM. For the same molecule, the GI50 (RPMI-8226 leukemia) was 0.225 µM, the GI50 (OVCAR-8 ovarian) was > 32.9 µM and the GI50 (CCRF-CEM leukemia) was 0.706 µM. For the same molecule, the GI50 (HL-60(TB) leukemia) was 0.629 µM and the GI50 (ACHN renal) was 7.84 µM.

CON(C)C(=O)N1N=C(c2cc(F)ccc2F)SC1(CCCN)c1ccccc1 (configuration not stated) was tested, and the GI50 (NCI-H522 lung) was < 0.01 µM, the TGI (NCI-H522 lung) was < 0.01 µM and the GI50 (UACC-62 melanoma) was < 0.01 µM. For the same molecule, the TGI (UACC-62 melanoma) was 16.4 µM and 16.1 µM, the GI50 (UACC-257 melanoma) was < 0.01 µM and the TGI (UACC-257 melanoma) was 2.29 µM and 2.47 µM. For the same molecule, the GI50 (PC-3 prostate) was < 0.01 µM, the TGI (PC-3 prostate) was 15.3 µM and 12.8 µM and the GI50 (HCT-116 colon) was < 0.01 µM. For the same molecule, the TGI (HCT-116 colon) was 11.2 µM and 11.4 µM, the GI50 (MALME-3M melanoma) was 1.19 µM and 1.26 µM and the TGI (MALME-3M melanoma) was 3.53 µM and 11.8 µM. For the same molecule, the GI50 (SF-539 CNS) was < 0.01 µM, the TGI (SF-539 CNS) was 10.2 µM and the GI50 (A549 NSCLC) was < 0.01 µM. For the same molecule, the TGI (A549 NSCLC) was 18.6 µM and 18.7 µM, the GI50 (MDA-MB-468 breast) was < 0.01 µM and the TGI (MDA-MB-468 breast) was < 0.01 µM. For the same molecule, the GI50 (COLO 205 colon) was < 0.01 µM, the TGI (COLO 205 colon) was < 0.01 µM and the GI50 (SK-MEL-5 melanoma) was < 0.01 µM. For the same molecule, the TGI (SK-MEL-5 melanoma) was < 0.01 µM, the GI50 (MOLT-4 leukemia) was < 0.01 µM and the TGI (MOLT-4 leukemia) was < 0.01 µM. The GI50 (TK-10 renal) was 0.0117 µM, the TGI (TK-10 renal) was 17.4 µM and the GI50 (SNB-75 CNS) was < 0.01 µM. For the same molecule, the TGI (SNB-75 CNS) was 16 µM and 15.9 µM, the GI50 (BT-549 breast) was < 0.01 µM and the TGI (BT-549 breast) was 11.9 µM and 11.1 µM. The GI50 (NCI-H460 NSCLC) was < 0.01 µM, the TGI (NCI-H460 NSCLC) was < 0.01 µM and the GI50 (HOP-92 NSCLC) was 10.1 µM and 8.95 µM. The TGI (HOP-92 NSCLC) was 21.8 µM and 21.6 µM, the GI50 (IGROV1 ovarian) was 1.84 µM and 1.13 µM and the TGI (IGROV1 ovarian) was 18.8 µM and 14.7 µM. For the same molecule, the GI50 (EKVX NSCLC) was < 0.01 µM, the TGI (EKVX NSCLC) was 15.6 µM and 14.8 µM and the GI50 (SK-OV-3 ovarian) was < 0.01 µM. The TGI (SK-OV-3 ovarian) was 12.2 µM and 11.9 µM, the GI50 (MCF7 breast) was < 0.01 µM and the TGI (MCF7 breast) was 11.9 µM and 12.1 µM. The GI50 (SF-268 CNS) was < 0.01 µM, the TGI (SF-268 CNS) was 15.7 µM and 15.3 µM and the GI50 (CAKI-1 renal) was 2.26 µM and 2.08 µM. For the same molecule, the TGI (CAKI-1 renal) was 19.2 µM and 19.3 µM, the GI50 (OVCAR-4 ovarian) was < 0.01 µM and the TGI (OVCAR-4 ovarian) was 14 µM and 12.6 µM. The GI50 (SN12C renal) was < 0.01 µM, the TGI (SN12C renal) was 14.7 µM and 16.6 µM and the GI50 (HT29 colon) was < 0.01 µM. The TGI (HT29 colon) was 1.15 µM and 1.31 µM, the GI50 (HCC-2998 colon) was < 0.01 µM and the TGI (HCC-2998 colon) was < 0.01 µM. The GI50 (A498 renal) was < 0.01 µM, the TGI (A498 renal) was 14.5 µM and 13.2 µM and the GI50 (HS 578T breast) was < 0.01 µM. The TGI (HS 578T breast) was < 0.01 µM, the GI50 (SNB-19 CNS) was < 0.01 µM and the TGI (SNB-19 CNS) was 11.7 µM and 7.12 µM. For the same molecule, the GI50 (RXF 393 renal) was < 0.01 µM, the TGI (RXF 393 renal) was 17.9 µM and 17.8 µM and the GI50 (NCI-H23 lung) was < 0.01 µM. The TGI (NCI-H23 lung) was 12.7 µM and 11.5 µM, the GI50 (MDA-MB-435 melanoma) was < 0.01 µM and the TGI (MDA-MB-435 melanoma) was < 0.01 µM. For the same molecule, the GI50 (NCI/ADR-RES ovarian) was 0.116 µM and 0.0175 µM, the TGI (NCI/ADR-RES ovarian) was 0.27 µM and 0.137 µM and the GI50 (DU-145 prostate) was < 0.01 µM. For the same molecule, the TGI (DU-145 prostate) was < 0.01 µM, the GI50 (M14 melanoma) was < 0.01 µM and the TGI (M14 melanoma) was < 0.01 µM. For the same molecule, the GI50 (SR leukemia) was < 0.01 µM, the TGI (SR leukemia) was < 0.01 µM and the GI50 (T-47D breast) was 0.0138 µM and < 0.01 µM. The TGI (T-47D breast) was 18.3 µM and 18.1 µM, the GI50 (SF-295 CNS) was < 0.01 µM and the TGI (SF-295 CNS) was 12.8 µM and 13.1 µM. For the same molecule, the GI50 (HCT-15 colon) was < 0.01 µM, the TGI (HCT-15 colon) was 11.7 µM and the GI50 (NCI-H226 lung) was 10.2 µM and 2.24 µM. For the same molecule, the TGI (NCI-H226 lung) was 22 µM and 16.9 µM, the GI50 (RPMI-8226 leukemia) was < 0.01 µM and the TGI (RPMI-8226 leukemia) was < 0.01 µM. For the same molecule, the GI50 (OVCAR-8 ovarian) was < 0.01 µM, the TGI (OVCAR-8 ovarian) was 14.5 µM and 13.4 µM and the GI50 (MDA-MB-231 breast) was < 0.01 µM. For the same molecule, the TGI (MDA-MB-231 breast) was 13.8 µM and 15.4 µM, the GI50 (U251 glioblastoma) was < 0.01 µM and the TGI (U251 glioblastoma) was 10.9 µM and 11.2 µM. The GI50 (NCI-H322M lung) was < 0.01 µM, the TGI (NCI-H322M lung) was 17.2 µM and 14.9 µM and the GI50 (LOX IMVI melanoma) was < 0.01 µM. For the same molecule, the TGI (LOX IMVI melanoma) was 10.5 µM and 11.1 µM, the GI50 (OVCAR-3 ovarian) was < 0.01 µM and the TGI (OVCAR-3 ovarian) was < 0.01 µM. The GI50 (HL-60(TB) leukemia) was < 0.01 µM, the TGI (HL-60(TB) leukemia) was < 0.01 µM and the GI50 (SK-MEL-28 melanoma) was 2.38 µM and 11.6 µM. The TGI (SK-MEL-28 melanoma) was 19.6 µM and 24 µM, the GI50 (ACHN renal) was 11.2 µM and 1.63 µM and the TGI (ACHN renal) was 23.3 µM and 19.6 µM. The GI50 (OVCAR-5 ovarian) was 0.0106 µM and < 0.01 µM, the TGI (OVCAR-5 ovarian) was 0.0842 µM and < 0.01 µM and the GI50 (KM12 colon) was < 0.01 µM. The TGI (KM12 colon) was 12.1 µM and 11.9 µM, the GI50 (HOP-62 NSCLC) was < 0.01 µM and the TGI (HOP-62 NSCLC) was 14.5 µM and 13.8 µM.
